Results: ChEMBL document CHEMBL3885881, “DrugMatrix”

Species on record: Rattus norvegicus
Test: DrugMatrix - Regimen: Daily Repeat
Assay type: toxicity, organism-based, Sprague-Dawley
Set-up: regimen Daily Repeat, gender Male, age 6-8 weeks
Details: in vivo, po, route oral GAVAGE, vehicle 100 % WATER; for ABSOLUTE BASOPHIL / ABSOLUTE EOSINOPHIL / ABSOLUTE LYMPHOCYTE / ABSOLUTE MONOCYTE / ABSOLUTE SEGMENTED NEUTROPHIL / BASOPHIL / EOSINOPHIL / ERYTHROCYTE COUNT / HEMATOCRIT / HEMOGLOBIN / LEUKOCYTE COUNT / LYMPHOCYTE / MEAN CORPUSCULAR HEMOGLOBIN / MEAN CORPUSCULAR HEMOGLOBIN CONCENTRATION / MEAN CORPUSCULAR VOLUME / MONOCYTE / NEUTROPHIL / NUCLEATED RED BLOOD CELLS / PLATELET COUNT: tissue Blood; for ALANINE AMINOTRANSFERASE / ALBUMIN / ALKALINE PHOSPHATASE / ASPARTATE AMINOTRANSFERASE / BLOOD UREA NITROGEN / CARBON DIOXIDE / CHLORIDE / CHOLESTEROL / CREATINE PHOSPHOKINASE / CREATININE / GLUCOSE / LACTATE DEHYDROGENASE / LIPASE / PHOSPHORUS / POTASSIUM / SODIUM / TOTAL BILIRUBIN / TOTAL PROTEIN / URIC ACID: tissue Plasma
[1] = 0 mg/kg, 72 h, dose level Control, time 3 day
[2] = 0 mg/kg, 120 h, dose level Control, time 5 day
[3] = 30 mg/kg, 72 h, dose level Low, time 3 day
[4] = 30 mg/kg, 120 h, dose level Low, time 5 day

With `COc1cccc(C2(O)CCCCC2CN(C)C)c1` (configuration not stated) [TRAMADOL] the “ABSOLUTE BASOPHIL” value [1] was 0 CELLS/uL, the “ABSOLUTE EOSINOPHIL” value [1] was 32.5 CELLS/uL and the “ABSOLUTE LYMPHOCYTE” value [1] was 9305.83 CELLS/uL. The “ABSOLUTE MONOCYTE” value [1] was 43.83 CELLS/uL, the “ABSOLUTE SEGMENTED NEUTROPHIL” value [1] was 817.83 CELLS/uL and the BASOPHIL [1] was 0%. The EOSINOPHIL [1] was 0.33%, the “ERYTHROCYTE COUNT” value [1] was 5.38 x10E6/uL and the HEMATOCRIT [1] was 33.63%. The HEMOGLOBIN [1] was 13.17 G/DL, the “LEUKOCYTE COUNT” value [1] was 10.2 x10E3/uL and the LYMPHOCYTE [1] was 91.17%. The “MEAN CORPUSCULAR HEMOGLOBIN” value [1] was 24.5 pg, the “MEAN CORPUSCULAR HEMOGLOBIN CONCENTRATION” value [1] was 39.13 G/DL and the “MEAN CORPUSCULAR VOLUME” value [1] was 62.53 fL. For the same compound, the MONOCYTE [1] was 0.5%, the NEUTROPHIL [1] was 8% and the “NUCLEATED RED BLOOD CELLS” value [1] was 0.17 /100WBC. The “PLATELET COUNT” value [1] was 858 x10E3/uL, the “ALANINE AMINOTRANSFERASE” value [1] was 55.67 u/L and the ALBUMIN [1] was 4.07 G/DL. The “ALKALINE PHOSPHATASE” value [1] was 337 u/L, the “ASPARTATE AMINOTRANSFERASE” value [1] was 84 u/L and the “BLOOD UREA NITROGEN” value [1] was 13.17 mg/dL. For the same compound, the “CARBON DIOXIDE” value [1] was 34.17 mmol/L, the CHLORIDE [1] was 99.33 MEQ/L and the CHOLESTEROL [1] was 78.83 mg/dL. For the same compound, the “CREATINE PHOSPHOKINASE” value [1] was 576.83 u/L, the CREATININE [1] was 0.17 mg/dL and the GLUCOSE [1] was 152.67 mg/dL. The “LACTATE DEHYDROGENASE” value [1] was 147.83 u/L, the LIPASE [1] was 9.5 u/L and the PHOSPHORUS [1] was 10.78 mg/dL. For the same compound, the POTASSIUM [1] was 6.34 MEQ/L, the SODIUM [1] was 144.12 MEQ/L and the “TOTAL BILIRUBIN” value [1] was 0.18 mg/dL. The “TOTAL PROTEIN” value [1] was 6.08 G/DL, the “URIC ACID” value [1] was 0.65 mg/dL and the “ABSOLUTE BASOPHIL” value [2] was 0 CELLS/uL. The “ABSOLUTE EOSINOPHIL” value [2] was 31.17 CELLS/uL, the “ABSOLUTE LYMPHOCYTE” value [2] was 7918.33 CELLS/uL and the “ABSOLUTE MONOCYTE” value [2] was 58.33 CELLS/uL. The “ABSOLUTE SEGMENTED NEUTROPHIL” value [2] was 725.5 CELLS/uL, the BASOPHIL [2] was 0% and the EOSINOPHIL [2] was 0.33%. The “ERYTHROCYTE COUNT” value [2] was 5.32 x10E6/uL, the HEMATOCRIT [2] was 33.53% and the HEMOGLOBIN [2] was 13.17 G/DL. For the same compound, the “LEUKOCYTE COUNT” value [2] was 8.73 x10E3/uL, the LYMPHOCYTE [2] was 90.33% and the “MEAN CORPUSCULAR HEMOGLOBIN” value [2] was 24.82 pg. For the same compound, the “MEAN CORPUSCULAR HEMOGLOBIN CONCENTRATION” value [2] was 39.33 G/DL, the “MEAN CORPUSCULAR VOLUME” value [2] was 63.12 fL and the MONOCYTE [2] was 0.67%. The NEUTROPHIL [2] was 8.67%, the “NUCLEATED RED BLOOD CELLS” value [2] was 0 /100WBC and the “PLATELET COUNT” value [2] was 1144.83 x10E3/uL. For the same compound, the “ALANINE AMINOTRANSFERASE” value [2] was 60.5 u/L, the ALBUMIN [2] was 3.97 G/DL and the “ALKALINE PHOSPHATASE” value [2] was 343.17 u/L. For the same compound, the “ASPARTATE AMINOTRANSFERASE” value [2] was 80.83 u/L, the “BLOOD UREA NITROGEN” value [2] was 15 mg/dL and the “CARBON DIOXIDE” value [2] was 31 mmol/L. For the same compound, the CHLORIDE [2] was 99.75 MEQ/L, the CHOLESTEROL [2] was 71.5 mg/dL and the “CREATINE PHOSPHOKINASE” value [2] was 237.17 u/L. The CREATININE [2] was 0.17 mg/dL, the GLUCOSE [2] was 137 mg/dL and the “LACTATE DEHYDROGENASE” value [2] was 146.17 u/L. It also gave an LIPASE [2] of 11.5 u/L, a PHOSPHORUS [2] of 10.13 mg/dL and a POTASSIUM [2] of 6 MEQ/L. For the same compound, the SODIUM [2] was 145 MEQ/L, the “TOTAL BILIRUBIN” value [2] was 0.13 mg/dL and the “TOTAL PROTEIN” value [2] was 5.82 G/DL. For the same compound, the “URIC ACID” value [2] was 0.62 mg/dL, the “ABSOLUTE BASOPHIL” value [3] was 0 CELLS/uL and the “ABSOLUTE EOSINOPHIL” value [3] was 0 CELLS/uL. For the same compound, the “ABSOLUTE LYMPHOCYTE” value [3] was 6045 CELLS/uL, the “ABSOLUTE MONOCYTE” value [3] was 124.33 CELLS/uL and the “ABSOLUTE SEGMENTED NEUTROPHIL” value [3] was 697.33 CELLS/uL. The BASOPHIL [3] was 0%, the EOSINOPHIL [3] was 0% and the “ERYTHROCYTE COUNT” value [3] was 5.35 x10E6/uL. For the same compound, the HEMATOCRIT [3] was 33.3%, the HEMOGLOBIN [3] was 13.03 G/DL and the “LEUKOCYTE COUNT” value [3] was 6.87 x10E3/uL. For the same compound, the LYMPHOCYTE [3] was 88.33%, the “MEAN CORPUSCULAR HEMOGLOBIN” value [3] was 24.4 pg and the “MEAN CORPUSCULAR HEMOGLOBIN CONCENTRATION” value [3] was 39.13 G/DL. The “MEAN CORPUSCULAR VOLUME” value [3] was 62.23 fL, the MONOCYTE [3] was 1.67% and the NEUTROPHIL [3] was 10%. The “NUCLEATED RED BLOOD CELLS” value [3] was 0.67 /100WBC, the “PLATELET COUNT” value [3] was 1017 x10E3/uL and the “ALANINE AMINOTRANSFERASE” value [3] was 47.33 u/L. For the same compound, the ALBUMIN [3] was 4.13 G/DL, the “ALKALINE PHOSPHATASE” value [3] was 434.67 u/L and the “ASPARTATE AMINOTRANSFERASE” value [3] was 82.67 u/L. The “BLOOD UREA NITROGEN” value [3] was 12.33 mg/dL, the “CARBON DIOXIDE” value [3] was 34.67 mmol/L and the CHLORIDE [3] was 99.67 MEQ/L. The CHOLESTEROL [3] was 72.33 mg/dL, the “CREATINE PHOSPHOKINASE” value [3] was 347.67 u/L and the CREATININE [3] was 0.16 mg/dL. For the same compound, the GLUCOSE [3] was 136.33 mg/dL, the “LACTATE DEHYDROGENASE” value [3] was 123.33 u/L and the LIPASE [3] was 9.33 u/L. The PHOSPHORUS [3] was 11 mg/dL, the POTASSIUM [3] was 6.23 MEQ/L and the SODIUM [3] was 144.43 MEQ/L. The “TOTAL BILIRUBIN” value [3] was 0.2 mg/dL, the “TOTAL PROTEIN” value [3] was 5.93 G/DL and the “URIC ACID” value [3] was 0.8 mg/dL. For the same compound, the “ABSOLUTE BASOPHIL” value [4] was 0 CELLS/uL, the “ABSOLUTE EOSINOPHIL” value [4] was 97.33 CELLS/uL and the “ABSOLUTE LYMPHOCYTE” value [4] was 8968.67 CELLS/uL. For the same compound, the “ABSOLUTE MONOCYTE” value [4] was 0 CELLS/uL, the “ABSOLUTE SEGMENTED NEUTROPHIL” value [4] was 967.33 CELLS/uL and the BASOPHIL [4] was 0%. The EOSINOPHIL [4] was 1%, the “ERYTHROCYTE COUNT” value [4] was 5.45 x10E6/uL and the HEMATOCRIT [4] was 35.3%. The HEMOGLOBIN [4] was 13.57 G/DL, the “LEUKOCYTE COUNT” value [4] was 10.03 x10E3/uL and the LYMPHOCYTE [4] was 88.67%. For the same compound, the “MEAN CORPUSCULAR HEMOGLOBIN” value [4] was 24.87 pg, the “MEAN CORPUSCULAR HEMOGLOBIN CONCENTRATION” value [4] was 38.47 G/DL and the “MEAN CORPUSCULAR VOLUME” value [4] was 64.67 fL. For the same compound, the MONOCYTE [4] was 0%, the NEUTROPHIL [4] was 10.33% and the “NUCLEATED RED BLOOD CELLS” value [4] was 0 /100WBC. The “PLATELET COUNT” value [4] was 1078.67 x10E3/uL, the “ALANINE AMINOTRANSFERASE” value [4] was 45 u/L and the ALBUMIN [4] was 4.03 G/DL. The “ALKALINE PHOSPHATASE” value [4] was 395 u/L, the “ASPARTATE AMINOTRANSFERASE” value [4] was 72 u/L and the “BLOOD UREA NITROGEN” value [4] was 13 mg/dL. The “CARBON DIOXIDE” value [4] was 30.67 mmol/L, the CHLORIDE [4] was 99 MEQ/L and the CHOLESTEROL [4] was 69.33 mg/dL. The “CREATINE PHOSPHOKINASE” value [4] was 188 u/L, the CREATININE [4] was 0.17 mg/dL and the GLUCOSE [4] was 143.67 mg/dL. The “LACTATE DEHYDROGENASE” value [4] was 113.33 u/L, the LIPASE [4] was 9.33 u/L and the PHOSPHORUS [4] was 11.2 mg/dL. For the same compound, the POTASSIUM [4] was 6.21 MEQ/L, the SODIUM [4] was 144.27 MEQ/L and the “TOTAL BILIRUBIN” value [4] was 0.2 mg/dL. The “TOTAL PROTEIN” value [4] was 5.8 G/DL and the “URIC ACID” value [4] was 1.2 mg/dL.
